Experimental findings from patent US20250147039A1, “Compounds for complexation of rare earth elements and/or s-, p-, d- block metals, their coordination compounds, peptide conjugates, method of their preparation and use thereof” (USTAV ORGANICKE CHEMIE A BIOCHEMIE AV CR V.V.I., priority 2021, published 2025) are described below.

What all share (format): physicochemical
A short description of data set [1]: Dissociation of chelates in aq. 1.0M HCl at 80° C. (acid decomplexation kinetic inertness) (Chart 18).
Data set [2] can be described thus: Dissociation of chelates in aq. 0.1M HCl at RT (acid decomplexation kinetic inertness) (Chart 20).
The nature of data set [3]: Dissociation of chelates in aq. 0.1M HCl at 80° C. (acid decomplexation kinetic inertness) (Chart 19).
The nature of data set [4]: Dissociation of chelates in aq. 6.0M HCl at 80° C. (acid decomplexation kinetic inertness) (Chart 17).

In the case of `O=C1C[N@@]2CC[N@]3CC[N@@](CC[N@](CC2)Cc2cccc(n2)-c2cn(nn2)Cc2cc(-c4ccccc4)cc(n2)C3)CC(=O)[O][Lu][O]1` [TD874], the “fraction of intact chelate” value in data set [1] (1 month) stood at 0%; in data set [1] (1 week) it was 0%; in data set [1] (1 hour), 0%; in data set [1] (1 day) it was 0%; in data set [2] (1 month) it was 0%; in data set [2] (1 week) it was 14%. For the same molecule, the “fraction of intact chelate” value in data set [2] (1 hour) is listed as 99%; in data set [2] (1 day), 68%; in data set [3] (1 month) it was 0%; in data set [3] (1 week), 0%; in data set [3] (1 hour), 0%; in data set [3] (1 day) it was 0%. For the same molecule, the “fraction of intact chelate” value in data set [4] (1 month), in data set [4] (1 week), in data set [4] (1 hour) and in data set [4] (1 day) was 0% throughout.

As to `O=C1C[N@@]2CC[N@]3CC[N@@](CC[N@](CC2)Cc2cccc(n2)-c2cn(nn2)Cc2cc(-c4ccccc4)cc(n2)C3)CC(=O)[O][Gd][O]1` [TD875], the “fraction of intact chelate” value is 0% in data set [1] (1 month); 0% in data set [1] (1 week); 0% in data set [1] (1 hour); 0% in data set [1] (1 day); 0% in data set [2] (1 month); 6% in data set [2] (1 week). In addition, the “fraction of intact chelate” value was 98% in data set [2] (1 hour); 58% in data set [2] (1 day); 0% in data set [3] (1 month); 0% in data set [3] (1 week); 0% in data set [3] (1 hour); 0% in data set [3] (1 day). Also, the “fraction of intact chelate” value in data set [4] (1 month), in data set [4] (1 week), in data set [4] (1 hour) and in data set [4] (1 day) was 0% in each case.

`O=C([O-])CN1CCN2CCN(CC(=O)[O-])CCN(CC1)Cc1cccc(n1)-c1cnnn1Cc1cc(-c3ccccc3)cc(n1)C2.[Pb+2]` [TD876]: the “fraction of intact chelate” value in data set [1] (1 month), in data set [1] (1 week), in data set [1] (1 hour), in data set [1] (1 day), in data set [2] (1 month) and in data set [2] (1 week) was 0% each time. Besides, the “fraction of intact chelate” value in data set [2] (1 hour) is 6%; in data set [2] (1 day) it was 0%; in data set [3] (1 month), 0%; in data set [3] (1 week) it was 0%; in data set [3] (1 hour) it was 0%; in data set [3] (1 day), 0%. Moreover, the “fraction of intact chelate” value in data set [4] (1 month), in data set [4] (1 week), in data set [4] (1 hour) and in data set [4] (1 day) was 0% each time.

For the molecule `O=C1C[N@@]2CC[N@]3CC[N@@](CC[N@](CC2)Cc2cccc(n2)-c2cnnn2Cc2cc(-c4ccccc4)cc(n2)C3)CC(=O)[O][Cd][O]1` [TD880], the “fraction of intact chelate” value is reported as 63% in data set [1] (1 month); 90% in data set [1] (1 week); 100% in data set [1] (1 hour); 99% in data set [1] (1 day); 100% in data set [2] (1 month); 100% in data set [2] (1 week). For the same molecule, the “fraction of intact chelate” value in data set [2] (1 hour), in data set [2] (1 day), in data set [3] (1 month), in data set [3] (1 week), in data set [3] (1 hour) and in data set [3] (1 day) was 100% in each case. The “fraction of intact chelate” value in data set [4] (1 month) was found to be 0%; in data set [4] (1 week) it was 0%; in data set [4] (1 hour), 43%; in data set [4] (1 day) it was 0%.

Turning to `O=C([O-])CN1CCN2CCN(CC(=O)[O-])CCN(CC1)Cc1cccc(n1)-c1cnnn1Cc1cc(-c3ccccc3)cc(n1)C2.[Zn+2]` [TD890], the “fraction of intact chelate” value in data set [1] (1 month) is on record as 0%; in data set [1] (1 week), 0%; in data set [1] (1 hour) it was 0%; in data set [1] (1 day), 0%; in data set [2] (1 month), 5%; in data set [2] (1 week), 54%. Besides, the “fraction of intact chelate” value was determined as 100% in data set [2] (1 hour); 93% in data set [2] (1 day); 0% in data set [3] (1 month); 0% in data set [3] (1 week); 46% in data set [3] (1 hour); 0% in data set [3] (1 day). Besides, the “fraction of intact chelate” value in data set [4] (1 month), in data set [4] (1 week), in data set [4] (1 hour) and in data set [4] (1 day) was 0% each time.

In the case of `O=C1C[N@@]2CC[N@]3CC[N@@](CC[N@](CC2)Cc2cccc(n2)-c2cn(nn2)Cc2cc(-c4ccccc4)cc(n2)C3)CC(=O)[O][Cd][O]1` [TD900], the “fraction of intact chelate” value was found to be 0% in data set [1] (1 month); 0% in data set [1] (1 week); 0% in data set [1] (1 hour); 0% in data set [1] (1 day); 63% in data set [2] (1 month); 91% in data set [2] (1 week). In addition, the “fraction of intact chelate” value in data set [2] (1 hour) worked out at 100%; in data set [2] (1 day), 99%; in data set [3] (1 month) it was 0%; in data set [3] (1 week) it was 0%; in data set [3] (1 hour) it was 56%; in data set [3] (1 day), 0%. In addition, the “fraction of intact chelate” value in data set [4] (1 month), in data set [4] (1 week), in data set [4] (1 hour) and in data set [4] (1 day) was 0% each time.

Consider `O=P1(c2ccccc2)C[N@@]2CC[N@]3CC[N@@](CC[N@](CC2)Cc2cccc(n2)-c2cnnn2Cc2cccc(n2)C3)CP(=O)(c2ccccc2)[O][Gd][O]1` (stereo partly shown) [TD925], for which the “fraction of intact chelate” value was found to be 0% in data set [1] (1 month); 21% in data set [1] (1 week); 100% in data set [1] (1 hour); 82% in data set [1] (1 day); 100% in data set [2] (1 month); 100% in data set [2] (1 week). Also, the “fraction of intact chelate” value in data set [2] (1 hour) was determined as 100%; in data set [2] (1 day), 100%; in data set [3] (1 month), 60%; in data set [3] (1 week), 90%; in data set [3] (1 hour), 100%; in data set [3] (1 day), 98%. In addition, the “fraction of intact chelate” value is given as 0% in data set [4] (1 month), 0% in data set [4] (1 week), 77% in data set [4] (1 hour) and 0% in data set [4] (1 day).
